Results reported in patent publication US20260166061A1, “COMPOUND, RACEMATE OF SAID COMPOUND, SALT OF SAID COMPOUND OR SAID RACEMATE, COMPOSITION, ANTI-INFLAMMATORY AGENT, THERAPEUTIC AGENT FOR DEMENTIA, AND THERAPEUTIC AGENT FOR RETT SYNDROME” (INSTITUTE OF RHEOLOGICAL FUNCTION OF FOOD CO., LTD., priority 2021, published 2026).

Assays:
IL-1β in BV2 cells = test: LPS-induced IL-1β protein in BV2 cell culture supernatant (ELISA); format: cell-based, mice; details: 5 μg/mL, 16 hours pre-culture, LPS (1 g/mL) 6 hours, n=4, FIG. 2
Protocol: (§1) Under conditions where KIT-2 or KIT-13 was present (5 μg/mL), or where neither KIT-2 nor KIT-13 was present, BV2 cells, which are microglial cells in mice, were cultured for 16 hours in DMEM medium supplemented with 2% fetal bovine serum (FBS). Thereafter, treatment with LPS ([…]) was carried out for 6 hours. Subsequently, nuclear protein was extracted from the cells, and p65 was detected by the Western blotting method. The antibody used for the detection was an anti-p65 NFkB antibody (Ref no. 51-0500, manufactured by Invitrogen).
In addition, 20 μL of the cell culture supernatant after the LPS treatment was subjected to detection of the inflammatory cytokine IL-1ß by the ELISA method using a mouse IL-1β ELISA kit (manufactured by R&D Systems; Catalog No. DY401-05).

MeCP2-deficient mice [1] = test: RTT-like scoring using RTT model mice; format: in vivo; details: male MeCP2-deficient mice, 20 ng/g body weight, drinking water, scored weekly from 5 weeks old, FIG. 5
Protocol: RTT-like symptoms in MeCP2-deficient mice to which KIT-13 was administered were evaluated by RTT-like scoring. For the test, 4-week-old male MeCP2-deficient mice were used. The MeCP2-deficient mice were divided into the following two groups: a KIT-13 administration group (KO-KIT-13, n=14) and a control group (KO, n=15). In the KIT-13 administration group, KIT-13 was administered at 20 ng/g body weight by drinking-water administration in the same manner as in Test Example 3. In the control group, only water was given in the same manner.
The RTT-like scoring was carried out once a week from 5 weeks old, for the following items 1 to 6.
Each mouse was observed after gently placing the mouse on a platform. • 0 points: Same as the wild type. • 1 point: Lower mobility compared to the wild type. (The period of freezing after the first placement on the platform is longer, or the period during which the mouse is standing still is longer.) • 2 points: No spontaneous movement after the placement on the platform. The mouse can move in response to mild stimuli or food placed nearby.
• 0 points: Same as the wild type. • 1 point: Due to a severe reduction in the pelvis, the mouse spreads the hindlimbs apart during walking or running, compared to the wild type. Waddling gait.
Staggering gait. • 2 points: More remarkable abnormality. […]

[2] = Evaluation of body weight of MeCP2-deficient mice; format: in vivo; details: male MeCP2-deficient mice, 20 ng/g body weight, drinking water
Protocol: MeCP2-deficient mice to which KIT-13 was administered were subjected to measurement of the body weight every week, and changes in the body weight were evaluated. For the test, 4-week-old male MeCP2-deficient mice were used. The MeCP2-deficient mice were divided into the following two groups: a KIT-13 administration group (KO-KIT-13, n=14) and a control group (KO, n=21). In the KIT-13 administration group, KIT-13 was administered at 20 ng/g body weight by drinking-water administration in the same manner as in Test Example 3. In the control group, only water was given in the same manner.

p65 (NFkB) in BV2 cells = test: LPS-induced nuclear p65 expression in BV2 cells (Western blotting); format: cell-based, mice; details: 5 μg/mL, 16 hours pre-culture, LPS (1 g/mL) 6 hours, 20 μg nuclear protein, n=2, FIG. 1
Protocol: as §1

MeCP2-deficient mice [3] = test: Evaluation of lifetime using RTT model mice; format: in vivo; details: male MeCP2-deficient mice, 20 ng/g body weight, drinking water twice a week
Protocol: For the test, 4-week-old male MeCP2-deficient mice were used. The MeCP2-deficient mice were divided into the following two groups: a KIT-13 administration group (KO-KIT-13, n=14) and a control group (KO, n=28). The body weight of each mouse was measured in advance. For the KIT-13 administration group, KIT-13 was suspended in water by ultrasonication, and administered twice a week by drinking-water administration such that 20 ng/g body weight of KIT-13 was taken. On the other hand, in the control group, only water was given in the same manner.

[4] = system: c57BL6J mice with LPS-induced memory impairment; test: Water maze test in LPS-induced memory impairment model mice; format: in vivo; details: 10 mg/50 kg/day in drinking water for 30 days plus 7 days LPS (250 mg/kg/day), sixth trial, P<0.01, n=5, FIG. 7
Protocol: The effect of KIT-13 on LPS-induced memory impairment in mice was studied. Eight-week-old male c57BL6J mice (5 individuals per group; n=5) were allowed to drink KIT-13 for 30 days at a dose of 10 mg/50 kg/day, and then LPS treatment (250 mg/kg/day) was carried out for 7 days while the mice were similarly allowed to drink KIT-13. Thereafter, a water maze test was carried out for 2 days (three trials per day).
The time required for the mice to reach an escape platform (arrival time) was as illustrated in FIG. 7. Intergroup comparison was carried out using the ANOVA test and the Bonferroni post-hoc test. […] Thus, KIT-13 is effective for improvement of the brain function (cognitive function).

IL-1β gene in BV2 cells = test: LPS-induced IL-1β gene expression in BV2 cells (PCR); format: cell-based, mice; details: 5 μg/mL, 16 hours pre-culture, LPS (1 μg/mL) 2 hours, vs. no addition, β-actin internal standard, FIG. 3
Protocol: Under conditions where sPIs or KIT-13 was present (5 μg/mL), or where neither sPIs nor KIT-13 was present, BV2 cells were cultured for 16 hours in DMEM medium supplemented with 2% fetal bovine serum (FBS). Thereafter, treatment with LPS (1 μg/mL) was carried out for 2 hours. Subsequently, cellular RNA was extracted using the TRIzol (trademark) reagent, and cDNA was prepared from the RNA using a PrimeScript (trademark) 1st strand cDNA Synthesis Kit (manufactured by Takara; 6110). Using TaKaRa Taq (trademark) (manufactured by Takara; R110A), the expression levels of the IL-1β gene and, as an internal standard, the β-actin gene were quantified by polymerase chain reaction (PCR).
The base sequences of the forward primer and the reverse primer for the IL-1ß gene are shown in SEQ ID NOs: 1 and 2, respectively. The base sequences of the forward primer and the reverse primer for the β-actin gene are shown in SEQ ID NOs: 3 and 4, respectively.

## CCCCC/C=C\C/C=C\C/C=C\C/C=C\CCCC(=O)O[C@H](COCCCCCCCCCCCCCCCCCC)COP(=O)(O)OCCN [KIT-13]
IL-1β in BV2 cells
  LPS-induced expression of the inflammatory cytokine IL-1β (protein per 5000 cells): remarkably decreased
MeCP2-deficient mice [1]
  RTT-like score: reduced the RTT-like score
[2]
  toxicity (concluded from body weight): non-toxic
[2]; weekly measurement, t-test, FIG. 6
  changes in the body weight vs control group: No statistical difference
p65 (NFkB) in BV2 cells
  LPS-induced nuclear accumulation of p65: remarkably suppressed
MeCP2-deficient mice [3]; FIG. 4
  survival rate vs control group: higher survival rate than the control group
MeCP2-deficient mice [3]; n=14, control 64.5 days
  number of days required for the survival rate to decrease to 50%: 90 days
[4]
  memory (arrival time at escape platform) vs LPS group: showed improvement in the memory
IL-1β gene in BV2 cells
  expression of the IL-1β gene: significantly suppressed
